Experiments:
[1] = target: Dual specificity mitogen-activated protein kinase kinase 1 (Homo sapiens, UniProt Q02750); assay: Selectivity interaction (Ambit KINOMEscan and KiNATiv profiling in Jurkat cells) EUB0000090b MAP2K1; type: cell-based; conditions: at 1 µM
[2] = target: Aurora kinase B (Homo sapiens, UniProt Q96GD4); assay: Selectivity interaction (Kinase panel (DSF assay)) EUB0001559a AURKB
[3] = target: Cyclin-dependent kinase 11B (Homo sapiens) (UniProt P21127); assay: Selectivity interaction (KinomeScan (DiscoverX)) EUB0000655a CDK11B; conditions: at 10 µM
[4] = target: Cyclin-dependent kinase 16 (Homo sapiens) (UniProt Q00536); assay: Selectivity interaction (KinomeScan (DiscoverX)) EUB0001079a CDK16; conditions: at 1 µM
[5] = target: Serine/threonine-protein kinase PAK 1 (Homo sapiens) (UniProt Q13153); assay: Selectivity interaction (KinomeScan (DiscoverX)) EUB0000618a PAK1; conditions: at 10 µM
[6] = target: Serine/threonine-protein kinase Nek7 (Homo sapiens) (UniProt Q8TDX7); assay: Selectivity interaction (KinomeScan (DiscoverX)) EUB0000618a NEK7; conditions: at 10 µM
[7] = target: Tyrosine-protein kinase Blk (Homo sapiens) (UniProt P51451); assay: Selectivity interaction (KinomeScan (DiscoverX)) EUB0000618a BLK; conditions: at 10 µM
[8] = target: Serine/threonine-protein kinase MARK1 (Homo sapiens) (UniProt Q9P0L2); assay: Selectivity interaction (KinomeScan (DiscoverX)) EUB0000045b MARK1
[9] = target: Epithelial discoidin domain-containing receptor 1 (Homo sapiens) (UniProt Q08345); conditions: at 10 µM
[10] = target: Serine/threonine-protein kinase MRCK alpha (Homo sapiens) (UniProt Q5VT25); assay: Selectivity interaction (Upstate Kinase Profiler service (Millipore)) EUB0000056c CDC42BPA; conditions: at 1 µM
[11] = target: Serine/threonine-protein kinase MARK1 (Homo sapiens) (UniProt Q9P0L2); assay: Selectivity interaction (Upstate Kinase Profiler service (Millipore)) EUB0000056c MARK1; conditions: at 1 µM
[12] = target: Maternal embryonic leucine zipper kinase (Homo sapiens) (UniProt Q14680); conditions: at 10 µM
[13] = target: Serine/threonine-protein kinase PAK 4 (Homo sapiens, UniProt O96013); conditions: at 10 µM
[14] = target: Serine/threonine-protein kinase B-raf (Homo sapiens) (UniProt P15056); assay: Selectivity interaction (ActivX KiNativ screen (kinase selectivity in THP-1 cell lysates)) EUB0000639a BRAF; type: subcellular; conditions: lysate
[15] = target: Tyrosine-protein kinase JAK1 (Homo sapiens, UniProt P23458); assay: Selectivity interaction (ActivX KiNativ screen (kinase selectivity in THP-1 cell lysates)) EUB0000639a JAK1; type: subcellular; conditions: lysate
[16] = target: Serine/threonine-protein kinase WNK1 (Homo sapiens) (UniProt Q9H4A3); assay: Selectivity interaction (ActivX KiNativ screen (kinase selectivity in THP-1 cell lysates)) EUB0000639a WNK1; type: subcellular; conditions: lysate, at 0.04 µM
[17] = target: T1, Phosphatidylinositol 5-phosphate 4-kinase type-2 beta (Homo sapiens) (UniProt P78356); assay: Selectivity interaction (KinomeScan (DiscoverX)) EUB0000229b PIP4K2B; conditions: at 10 µM
T1 sequence (whole entry): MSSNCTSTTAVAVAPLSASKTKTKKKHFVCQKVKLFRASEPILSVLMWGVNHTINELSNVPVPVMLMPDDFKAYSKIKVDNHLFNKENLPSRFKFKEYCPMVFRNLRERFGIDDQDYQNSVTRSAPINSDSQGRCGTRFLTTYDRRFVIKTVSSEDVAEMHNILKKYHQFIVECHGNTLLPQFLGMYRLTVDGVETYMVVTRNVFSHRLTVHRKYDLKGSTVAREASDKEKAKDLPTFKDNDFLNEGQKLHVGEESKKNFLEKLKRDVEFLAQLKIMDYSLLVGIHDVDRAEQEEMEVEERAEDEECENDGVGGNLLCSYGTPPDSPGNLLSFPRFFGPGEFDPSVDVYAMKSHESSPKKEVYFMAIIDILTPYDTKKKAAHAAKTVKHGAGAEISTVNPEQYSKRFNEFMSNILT

[18] = target: Receptor tyrosine-protein kinase erbB-4 (Homo sapiens, UniProt Q15303); assay: Selectivity interaction (ProQinase) EUB0000171b ERBB4
[19] = target: T2, Ephrin type-A receptor 1 (Homo sapiens) (UniProt P21709); assay: Selectivity interaction (KinomeScan (DiscoverX)) EUB0001049a EPHA1; conditions: at 1 µM
T2 sequence (whole entry): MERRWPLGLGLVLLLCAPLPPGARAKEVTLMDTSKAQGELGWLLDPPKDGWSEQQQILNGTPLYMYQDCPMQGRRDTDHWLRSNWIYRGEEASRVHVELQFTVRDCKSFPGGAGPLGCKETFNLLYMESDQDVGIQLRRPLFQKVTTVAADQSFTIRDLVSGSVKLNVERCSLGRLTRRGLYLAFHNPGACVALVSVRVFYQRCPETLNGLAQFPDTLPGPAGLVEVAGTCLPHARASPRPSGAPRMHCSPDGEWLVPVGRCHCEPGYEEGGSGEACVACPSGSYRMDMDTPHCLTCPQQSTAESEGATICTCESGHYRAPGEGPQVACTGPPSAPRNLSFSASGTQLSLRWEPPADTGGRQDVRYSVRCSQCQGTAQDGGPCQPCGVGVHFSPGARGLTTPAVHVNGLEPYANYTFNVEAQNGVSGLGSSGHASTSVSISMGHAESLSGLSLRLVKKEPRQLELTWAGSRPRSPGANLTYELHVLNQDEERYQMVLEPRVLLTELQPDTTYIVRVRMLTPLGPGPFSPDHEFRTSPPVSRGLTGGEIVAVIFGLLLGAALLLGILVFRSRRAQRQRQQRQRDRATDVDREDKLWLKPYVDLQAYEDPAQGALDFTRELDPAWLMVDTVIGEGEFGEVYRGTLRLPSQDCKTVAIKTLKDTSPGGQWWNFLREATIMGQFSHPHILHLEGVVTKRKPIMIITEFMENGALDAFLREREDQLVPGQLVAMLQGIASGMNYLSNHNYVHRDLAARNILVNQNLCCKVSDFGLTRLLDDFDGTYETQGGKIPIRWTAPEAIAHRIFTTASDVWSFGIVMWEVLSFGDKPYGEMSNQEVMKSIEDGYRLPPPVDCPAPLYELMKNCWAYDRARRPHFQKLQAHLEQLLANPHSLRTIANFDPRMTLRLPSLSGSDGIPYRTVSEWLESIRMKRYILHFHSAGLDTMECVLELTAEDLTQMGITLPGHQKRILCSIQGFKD

[20] = target: Casein kinase I isoform alpha (Homo sapiens, UniProt P48729); assay: Selectivity interaction (KinomeScan (DiscoverX)) EUB0001049a CSNK1A1; conditions: at 1 µM

Sequence of Tyrosine-protein kinase JAK1 (P23458 whole entry): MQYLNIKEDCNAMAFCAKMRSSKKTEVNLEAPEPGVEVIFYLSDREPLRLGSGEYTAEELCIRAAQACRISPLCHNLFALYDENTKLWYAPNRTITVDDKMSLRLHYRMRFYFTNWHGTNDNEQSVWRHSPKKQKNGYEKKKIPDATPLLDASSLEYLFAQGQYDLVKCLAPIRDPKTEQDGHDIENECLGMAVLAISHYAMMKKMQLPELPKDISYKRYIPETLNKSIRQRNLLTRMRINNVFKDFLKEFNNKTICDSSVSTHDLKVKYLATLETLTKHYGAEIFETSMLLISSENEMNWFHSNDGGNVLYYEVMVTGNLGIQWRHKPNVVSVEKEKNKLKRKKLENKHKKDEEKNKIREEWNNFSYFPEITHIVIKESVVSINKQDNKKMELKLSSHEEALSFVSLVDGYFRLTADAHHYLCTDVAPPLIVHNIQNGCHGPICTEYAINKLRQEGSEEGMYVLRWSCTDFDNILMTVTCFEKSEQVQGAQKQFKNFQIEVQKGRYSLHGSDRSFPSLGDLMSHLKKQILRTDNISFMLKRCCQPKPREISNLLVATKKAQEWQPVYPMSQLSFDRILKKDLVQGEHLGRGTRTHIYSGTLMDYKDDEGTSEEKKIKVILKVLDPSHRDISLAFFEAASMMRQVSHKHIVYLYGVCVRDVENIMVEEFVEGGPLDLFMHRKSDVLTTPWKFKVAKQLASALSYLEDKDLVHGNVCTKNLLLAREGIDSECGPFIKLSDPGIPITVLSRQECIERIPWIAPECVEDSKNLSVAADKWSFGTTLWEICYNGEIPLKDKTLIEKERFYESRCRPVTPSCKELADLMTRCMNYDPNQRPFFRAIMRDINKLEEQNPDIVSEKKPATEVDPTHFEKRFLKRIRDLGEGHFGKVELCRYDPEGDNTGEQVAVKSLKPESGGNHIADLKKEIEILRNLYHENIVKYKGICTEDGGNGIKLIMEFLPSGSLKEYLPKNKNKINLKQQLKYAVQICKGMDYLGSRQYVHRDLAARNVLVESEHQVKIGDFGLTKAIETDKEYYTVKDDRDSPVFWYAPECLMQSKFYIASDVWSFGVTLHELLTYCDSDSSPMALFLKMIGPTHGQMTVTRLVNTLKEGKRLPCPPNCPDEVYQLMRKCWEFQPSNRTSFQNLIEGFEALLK
Sequence of Serine/threonine-protein kinase B-raf (Homo sapiens) (P15056 whole entry): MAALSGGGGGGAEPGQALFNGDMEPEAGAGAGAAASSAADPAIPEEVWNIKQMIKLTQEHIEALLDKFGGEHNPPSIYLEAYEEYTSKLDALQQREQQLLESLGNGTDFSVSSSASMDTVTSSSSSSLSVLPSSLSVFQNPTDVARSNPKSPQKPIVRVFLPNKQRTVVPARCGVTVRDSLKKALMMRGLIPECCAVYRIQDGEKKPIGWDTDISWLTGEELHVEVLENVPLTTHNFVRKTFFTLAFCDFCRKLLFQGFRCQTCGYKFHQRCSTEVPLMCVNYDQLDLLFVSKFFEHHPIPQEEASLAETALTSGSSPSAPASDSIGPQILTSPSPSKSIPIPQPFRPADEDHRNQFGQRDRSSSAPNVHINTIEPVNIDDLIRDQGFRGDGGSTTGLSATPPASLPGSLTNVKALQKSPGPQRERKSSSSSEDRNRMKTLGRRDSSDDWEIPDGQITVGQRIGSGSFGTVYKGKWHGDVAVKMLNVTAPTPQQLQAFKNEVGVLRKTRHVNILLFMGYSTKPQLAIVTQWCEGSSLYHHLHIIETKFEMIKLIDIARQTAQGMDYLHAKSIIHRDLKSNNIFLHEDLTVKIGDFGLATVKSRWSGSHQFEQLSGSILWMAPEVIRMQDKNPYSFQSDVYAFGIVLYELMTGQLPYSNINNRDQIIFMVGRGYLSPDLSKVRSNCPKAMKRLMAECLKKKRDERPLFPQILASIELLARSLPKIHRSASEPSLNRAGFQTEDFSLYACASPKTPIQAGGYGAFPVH
Sequence of Serine/threonine-protein kinase MARK1 (Homo sapiens) (Q9P0L2 whole entry, looked up, the tested form may be a part): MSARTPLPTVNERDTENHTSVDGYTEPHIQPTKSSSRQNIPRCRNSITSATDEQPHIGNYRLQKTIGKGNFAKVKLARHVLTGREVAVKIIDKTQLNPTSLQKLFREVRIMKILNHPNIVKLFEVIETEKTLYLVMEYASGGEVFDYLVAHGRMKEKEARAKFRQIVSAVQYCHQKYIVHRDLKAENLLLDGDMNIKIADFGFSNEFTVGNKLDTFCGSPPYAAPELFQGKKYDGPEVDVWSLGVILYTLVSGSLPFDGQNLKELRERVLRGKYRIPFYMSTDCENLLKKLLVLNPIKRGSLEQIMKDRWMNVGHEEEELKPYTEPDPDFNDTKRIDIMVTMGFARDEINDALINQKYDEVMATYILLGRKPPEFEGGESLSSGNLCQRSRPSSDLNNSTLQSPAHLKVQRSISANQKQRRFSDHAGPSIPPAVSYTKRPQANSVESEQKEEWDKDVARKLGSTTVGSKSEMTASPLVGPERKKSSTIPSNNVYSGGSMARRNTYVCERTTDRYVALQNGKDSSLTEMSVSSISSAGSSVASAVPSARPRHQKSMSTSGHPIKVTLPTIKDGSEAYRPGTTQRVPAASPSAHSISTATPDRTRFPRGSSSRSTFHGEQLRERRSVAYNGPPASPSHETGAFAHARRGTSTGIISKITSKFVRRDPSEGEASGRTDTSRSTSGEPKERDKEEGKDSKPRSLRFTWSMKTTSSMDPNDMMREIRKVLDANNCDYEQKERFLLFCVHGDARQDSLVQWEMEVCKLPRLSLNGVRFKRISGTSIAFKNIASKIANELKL
Sequence of Receptor tyrosine-protein kinase erbB-4 (Q15303 whole entry): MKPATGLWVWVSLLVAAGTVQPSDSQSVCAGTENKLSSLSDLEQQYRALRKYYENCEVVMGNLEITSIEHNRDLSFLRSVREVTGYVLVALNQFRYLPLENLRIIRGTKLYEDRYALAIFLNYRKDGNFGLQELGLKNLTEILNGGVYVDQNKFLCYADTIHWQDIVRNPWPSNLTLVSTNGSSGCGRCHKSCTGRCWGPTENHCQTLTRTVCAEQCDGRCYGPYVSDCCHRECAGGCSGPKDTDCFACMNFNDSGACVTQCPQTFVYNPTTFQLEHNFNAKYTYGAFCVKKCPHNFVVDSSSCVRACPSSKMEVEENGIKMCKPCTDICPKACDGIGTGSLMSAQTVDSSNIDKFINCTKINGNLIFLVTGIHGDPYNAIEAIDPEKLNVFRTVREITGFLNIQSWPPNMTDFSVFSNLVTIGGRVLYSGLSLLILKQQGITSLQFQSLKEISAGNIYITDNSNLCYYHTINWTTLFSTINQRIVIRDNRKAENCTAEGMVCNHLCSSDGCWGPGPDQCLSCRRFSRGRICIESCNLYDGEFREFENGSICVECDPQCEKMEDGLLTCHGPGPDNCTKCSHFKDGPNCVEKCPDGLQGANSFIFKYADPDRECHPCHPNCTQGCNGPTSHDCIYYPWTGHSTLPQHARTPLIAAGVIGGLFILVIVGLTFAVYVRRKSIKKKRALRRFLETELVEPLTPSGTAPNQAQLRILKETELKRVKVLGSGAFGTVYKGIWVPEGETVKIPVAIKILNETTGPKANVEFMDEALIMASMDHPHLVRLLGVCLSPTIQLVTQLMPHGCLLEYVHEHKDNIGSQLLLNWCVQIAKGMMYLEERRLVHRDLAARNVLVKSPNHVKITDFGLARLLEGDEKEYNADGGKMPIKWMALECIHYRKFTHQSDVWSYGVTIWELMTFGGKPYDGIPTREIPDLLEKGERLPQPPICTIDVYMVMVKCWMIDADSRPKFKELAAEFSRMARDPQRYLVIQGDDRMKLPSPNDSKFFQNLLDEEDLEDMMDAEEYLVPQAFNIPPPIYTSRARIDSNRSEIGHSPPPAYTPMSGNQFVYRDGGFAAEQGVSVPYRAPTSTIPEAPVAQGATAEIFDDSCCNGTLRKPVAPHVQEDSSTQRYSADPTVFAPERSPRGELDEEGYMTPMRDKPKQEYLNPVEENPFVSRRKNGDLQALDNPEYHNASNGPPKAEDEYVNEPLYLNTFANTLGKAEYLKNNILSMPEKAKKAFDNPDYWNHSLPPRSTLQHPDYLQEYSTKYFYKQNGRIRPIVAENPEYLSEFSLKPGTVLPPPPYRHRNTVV
Sequence of Serine/threonine-protein kinase Nek7 (Homo sapiens) (Q8TDX7 whole entry, looked up): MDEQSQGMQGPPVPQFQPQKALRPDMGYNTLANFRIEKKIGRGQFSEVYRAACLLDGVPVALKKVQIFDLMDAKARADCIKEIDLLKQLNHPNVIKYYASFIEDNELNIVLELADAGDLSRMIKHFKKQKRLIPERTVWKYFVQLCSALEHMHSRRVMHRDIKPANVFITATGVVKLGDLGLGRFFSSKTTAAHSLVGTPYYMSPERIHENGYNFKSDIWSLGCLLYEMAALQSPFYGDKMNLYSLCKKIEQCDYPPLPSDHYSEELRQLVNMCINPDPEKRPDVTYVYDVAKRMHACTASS
Sequence of Aurora kinase B (Q96GD4 whole entry): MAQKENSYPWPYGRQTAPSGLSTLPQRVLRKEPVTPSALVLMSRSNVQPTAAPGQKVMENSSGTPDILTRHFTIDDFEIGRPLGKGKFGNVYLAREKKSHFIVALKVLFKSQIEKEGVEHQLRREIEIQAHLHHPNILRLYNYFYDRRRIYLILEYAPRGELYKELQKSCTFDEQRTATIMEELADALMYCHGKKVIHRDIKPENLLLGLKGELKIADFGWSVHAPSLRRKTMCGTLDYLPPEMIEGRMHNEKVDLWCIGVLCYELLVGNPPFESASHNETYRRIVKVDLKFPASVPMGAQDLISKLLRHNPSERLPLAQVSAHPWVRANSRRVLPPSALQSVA
Sequence of Dual specificity mitogen-activated protein kinase kinase 1 (Q02750 whole entry): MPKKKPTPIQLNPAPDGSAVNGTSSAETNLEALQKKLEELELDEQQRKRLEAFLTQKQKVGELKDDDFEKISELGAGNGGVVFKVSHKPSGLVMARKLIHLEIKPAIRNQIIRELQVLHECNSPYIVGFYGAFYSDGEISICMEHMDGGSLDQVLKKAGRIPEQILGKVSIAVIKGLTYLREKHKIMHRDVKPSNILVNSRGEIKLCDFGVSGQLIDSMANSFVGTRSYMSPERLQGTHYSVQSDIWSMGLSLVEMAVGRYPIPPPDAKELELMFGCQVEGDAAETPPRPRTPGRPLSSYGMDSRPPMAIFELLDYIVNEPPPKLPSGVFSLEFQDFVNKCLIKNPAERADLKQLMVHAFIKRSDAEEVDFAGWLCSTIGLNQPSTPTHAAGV

Compound: CN(C)C/C=C/C(=O)Nc1ccc(C(=O)N2CCCC(Nc3ncc(Cl)c(-c4c[nH]c5ccccc45)n3)C2)cc1 (stereo not given)
- % of control [1]: 99%

Compound: CN(C(=O)c1cnn2cccnc12)c1cc2c(cc1N1CCOCC1)C(=O)N(C[C@@H](F)C(C)(C)O)C2
- dTM [2]: -1.6 K

Compound: CN(C)CCOc1ccc(-c2nc(-c3ccncc3)c(-c3ccc4c(c3)CC/C4=N\O)[nH]2)cc1
- % of control [3]: 100%

Compound: Nc1cnc(N2CCc3cc(S(=O)(=O)Nc4c(F)cc(Cl)cc4F)cc(N4CCCC4=O)c32)nc1 [TP-020n]
- % of control [4]: 98%

Compound: O[C@H]1CC[C@H](Nc2ncc3nc(Nc4c(F)cc(F)cc4F)n([C@H]4CCOC4)c3n2)CC1
- % of control [5]: 99%
- % of control [6]: 95%
- % of control [7]: 98%

Compound: C=CC(=O)Nc1cc(-n2c(=O)ccc3cnc4ccc(-c5ccc(NS(C)(=O)=O)cc5)cc4c32)ccc1C
- % of control ([8]; at 1 µM): 97%
- % of control ([8]; at 10 µM): 89%

Compound: COCC(=O)NC/C=C/c1ccc2ncnc(Nc3ccc(Oc4ccc(C)nc4)c(C)c3)c2c1 [CP-724714]
- % of control [9]: 52%

Compound: Cc1ccc(-c2ccc3c(ccc4sc5c(c43)NC[C@@H](C)NC5=O)n2)cn1
- % of inhibition [10]: -21%
- % of inhibition [11]: 5%

Compound: Cc1cc([C@@H](C)Nc2ccccc2C(=O)O)c2nc(N3CCOCC3)cc(=O)n2c1 [AZD-6482]
- % of control [12]: 100%
- % of control [13]: 100%

Compound: CC[C@@H]1[C@H](F)C(=O)N[C@@H]1COc1nccc2cc(C(N)=O)c(OC)cc12 [ZIMLOVISERTIB]
- % of inhibition ([14]; at 0.01 µM): 7.3%
- % of inhibition ([14]; at 0.04 µM): 15.4%
- % of inhibition ([14]; at 0.2 µM): -0.2%
- % of inhibition ([14]; at 1 µM): -0.4%
- % of inhibition ([14]; at 5 µM): -15.5%
- % of inhibition ([15]; at 0.01 µM): 18%
- % of inhibition ([15]; at 0.04 µM): 15.6%
- % of inhibition ([15]; at 0.2 µM): 11.9%
- % of inhibition ([15]; at 1 µM): 9%
- % of inhibition ([15]; at 5 µM): -24.4%
- % of inhibition [16]: -7.4%

Compound: COc1cc(N(C)c2ccnc3ccc(C(F)(F)F)cc23)cc(OC)c1OC
- % binding [17]: 100%

Compound: C=CC(=O)Nc1cccc(C(=O)Nc2ccc(Nc3cc(-c4[nH]c(SC)nc4C)ccn3)cc2)c1
- % of control ([18]; at 1 µM): 93%
- % of control ([18]; at 5 µM): 90%

Compound: COc1cc(Nc2nc(C)cc(-c3cnn4nc(OC)ccc34)n2)cc(C(F)(F)F)c1
- % of control [19]: 93%
- % of control [20]: 77%
